Data as given in US20160153045A1, “Biomarkers for Increased Risk of Drug-Induced 5-Aminosalicylate Nephrotoxicity” (Severe Adverse Event (SAE) Consortium, priority 2014, published 2016).

Legend:
patients = settings: in vivo; cited from earlier work
[1] = tested on: Inflammatory bowel disease patients; settings: human, in vivo
From the text: Methods: Inflammatory bowel disease patients were recruited from 89 sites around the world. Inclusion criteria included normal renal function prior to commencing 5-ASA, ≧50% rise in creatinine any time after starting 5-ASA and physician opinion implicating 5-ASA strong enough to justify drug withdrawal. An adjudication panel identified definite and probable cases from structured case report forms. A genome wide association study was then undertaken with these cases and 4,109 disease controls.
Patient Recruitment: Individual study sites identified and recruited patients with 5-ASA induced nephrotoxicity. This study was open to recruitment at 118 UK research sites (73.8% of the 160 acute NHS trusts in the UK) as well as 45 international sites. In total 77 sites from the UK and 12 sites from outside the UK recruited one or more patients. The protocol was approved by the National Research Ethics Committee South West, Exeter, UK (10/H0203/76) and by all local research and development offices.
Inclusion criteria for patient recruitment required the presence of all of the following: • Patient administered any 5-ASA compound for treatment of inflammatory bowel disease (Crohn's disease, ulcerative colitis or IBD-unclassified) • Patient aged 6 or over • Normal creatinine or estimated glomerular filtration rate (eGFR) prior to first administration of 5-ASA or a creatinine that returned to the normal range after cessation of therapy • Greater than or equal to 50% rise in serum creatinine any time after introduction of 5-ASA • Physician opinion implicating 5-ASA strong enough to justify drug withdrawal, even if temporary
Cases were identified from recruiting sites through clinics and systematic searches of historical records and pathology databases. Gastroenterologists who replied to a 2001-2002 UK survey of 5-ASA induced nephrotoxicity were encouraged to submit cases^10. Clinicians who had submitted adverse drug reaction reports to the Medicines and Healthcare Products Regulatory Agency (MHRA) were invited to consider recruiting patients. Direct advertising to patients through the national patient newsletter was also undertaken. Cases were recruited who developed nephrotoxicity between 1988 and 2013 (73% of cases were diagnosed with renal injury after the year 2000).
Case adjudication: An anonymised case report form detailing demographic, clinical and drug history was completed with the aid of hospital records. Two 6 ml EDTA blood samples were taken at this visit for DNA extraction (BD Vacutainer, USA). The case report forms also requested creatinine levels and their corresponding dates at four time points: 1) at baseline (usually before 5-ASA commenced, but not exclusively), 2) at the recording of first abnormal creatinine value, 3) the worst creatinine value and 4) the best recovered creatinine value. After data collection, the last normal creatinine value before development of renal injury was also obtained, if it was available (92/151 cases), to enable better characterisation of the time period. If a renal biopsy was performed, the anonymised report was requested.
To assess patient eligibility for entry to this study, at least three gastroenterologists and at least one nephrologist reviewed each case for causality at a dedicated in-person adjudication panel meeting. For each case the evidence implicating the 5-ASA as the cause of nephrotoxicity was assessed using an adapted version of the validated Liverpool Adverse Drug Reaction Causality Assessment Tool^16. Patients were classified as definite, probable, possible or unlikely cases of 5-ASA nephrotoxicity based on the adjudicator's independent assessment that the nephrotoxicity was due to 5-ASA treatment. The panel discussed all cases before a final adjudication decision was reached. Only individuals classified as probable or definite cases of 5-ASA induced nephrotoxicity were taken forward for clinical and genetic analyses. […]

- biopsies with acute interstitial inflammation [1]: 22%
- biopsies with acute on chronic interstitial inflammation [1]: 20%
- biopsies with only chronic inflammatory changes in the interstitium [1]: 58%
- cases with an abnormal creatinine within the first 12 months of treatment [1]: 13%
- cases with full recovery of renal function after drug withdrawal [1]: 30%
- patients requiring renal replacement therapy [1]: 15 patients
- renal biopsies with clear evidence of interstitial nephritis [1]: 57 patients
Structure (SMILES): Nc1ccc(O)c(C(=O)O)c1 [5-ASA, 5-aminosalicylate]
- annual risk of nephrotoxicity (patients): 0.26%
- definite cases: second episode of kidney injury when re-challenged with the agent [1]: 5 cases
